The target of one assay is T1, Mouse IBAT (Mus musculus, UniProt P70172).
T1 construct: expressed in transfected cells; kept under puromycin selection
T1 sequence (P70172 1-348): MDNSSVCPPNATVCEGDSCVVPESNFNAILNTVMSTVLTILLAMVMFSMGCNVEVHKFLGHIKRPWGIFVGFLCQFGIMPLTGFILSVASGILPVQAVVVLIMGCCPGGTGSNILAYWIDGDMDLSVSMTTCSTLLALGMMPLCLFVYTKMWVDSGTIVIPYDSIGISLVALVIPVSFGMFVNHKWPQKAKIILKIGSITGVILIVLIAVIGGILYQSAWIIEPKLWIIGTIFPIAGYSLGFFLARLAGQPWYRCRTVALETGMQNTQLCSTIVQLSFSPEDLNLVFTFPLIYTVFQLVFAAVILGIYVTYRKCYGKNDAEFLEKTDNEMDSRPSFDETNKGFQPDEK
Put plainly: 3H-taurocholic acid uptake in mouse IBAT-overexpressing cells. The assay is classed as cell-based. The note with it: 3H-taurocholic acid transport. The method, then:
10,000 cells (Human & Mouse IBAT-overexpressing cells) were seeded in 96-wells plate in 100 μL MEM-alpha medium supplemented with 10% FBS containing puromycin (10 μg/mL) and incubated at 37° C. in 5% CO2 for 48 hrs. After incubation media was decanted from the wells, cells were washed two times with 250 μL of basal MEM-alpha medium (FBS-free). After each wash, plates were tapped against paper towel to ensure maximum removal of residual media. Test inhibitor dilutions (highest test concentration being 10 μM, 3-fold serial dilution, 10 concentrations) prepared in DMSO were added to the incubation mix (maintaining 0.2% final DMSO concentration) containing 0.25 μM ^3H-taurocholic acid and 5 μM of cold taurocholic acid. […]
After incubation, the reaction was stopped by keeping the plates on ice water mix for 2-3 minutes and then the incubation mix was aspirated completely from the wells. […] 100 μL of MicroScint-20 was added to the wells and kept overnight at room temperature before reading the plates in MicroBeta2 liquid Scintillation Counter from PerkinElmer under ^3H Test for I/L-BAT protocol (set at 120 seconds reading time per well, with normal plate orientation).
Percentage inhibitions were calculated with respect to the assay controls. […]

The test system of a further assay is HBV genotype C. Put plainly: Serum HBsAg in HBV-infected PXB mice. The class given is in vivo, hepatitis B virus. The note with it: 10 mg/kg and 30 mg/kg, Day 7. The method, then: Target volume of blood was collected from all surviving animals under isoflurane anesthesia via the retro-orbital plexus/sinus using Intramedic™ Polyethylene Tubing at each time point. Two microliters (2 μL) from the collected blood were used for human albumin measurements. The remaining blood was centrifuged to separate serum to be used for analyzing the indicated biomarkers. Blood samples were collected according to Table 8.
The individual blood samples of the animals were left at room temperature for at least 5 minutes to coagulate and then centrifuged at 13200×g, 4° C. for 3 minutes to obtain serum. The serum was divided into separate labeled microtubes and stored at −80° C. until analysis.
Serum HBsAg concentration was determined by SRL, Inc. (Tokyo, Japan) based on a Chemiluminescent Enzyme Immuno Assay (CLEIA) developed by Fujirebio ([…] HBsAg-HQ, […]® Prestoll). The dilution factor was 30 and 10, and the measurement range of this assay was between 0.005 and 150 IU/mL. For the 30-fold diluted samples, the measurement range was adjusted to be between 0.15 and 4500 IU/mL. And for the 10-fold diluted samples, the measurement range was adjusted to be between 0.05 and 1500 IU/mL. The lowest quantification limit of this assay was 0.15 IU/mL serum.

`CCCCC1CN(c2ccccc2)c2cc(SC)c(O/C=C(\F)C(=O)O)cc2S(=O)(=O)N1C` (centres unmarked) [Compound 1, (Z)-3-((3-butyl-2-methyl-7-(methylthio)-1,1-dioxido-5-phenyl-2,3,4,5-tetrahydro-1,2,5-benzothiadiazepin-8-yl)oxy)-2-fluoroacrylic acid] showed an IC50 against Mouse IBAT of 40.8 ± 4.6 nM. Besides, the “serum HBsAg compared to controls” value in the assay on HBV genotype C is recorded as “lower”.

Source of the values: patent publication US20230398125A1, “TREATING HEPATITIS” (Albireo AB, priority 2022, published 2023).
